From patent US9751869B2, “LXR modulators” (BRISTOL-MYERS SQUIBB COMPANY, priority 2013, dated 2017)
pEC50: −log10 of the molar value.

Molecular target: T1, LXRβ (Homo sapiens, UniProt P55055)
T1 construct: Co-transfection expression plasmids, comprising full-length LXRα (pCMX-h LXRα or LXRβ (pCMX-hLXRβ)); expressed in transfected cells; host or cells: CV-1 African green monkey kidney cells, transient transfection with pCMX-hLXRβ
T1 sequence (P55055 1-460): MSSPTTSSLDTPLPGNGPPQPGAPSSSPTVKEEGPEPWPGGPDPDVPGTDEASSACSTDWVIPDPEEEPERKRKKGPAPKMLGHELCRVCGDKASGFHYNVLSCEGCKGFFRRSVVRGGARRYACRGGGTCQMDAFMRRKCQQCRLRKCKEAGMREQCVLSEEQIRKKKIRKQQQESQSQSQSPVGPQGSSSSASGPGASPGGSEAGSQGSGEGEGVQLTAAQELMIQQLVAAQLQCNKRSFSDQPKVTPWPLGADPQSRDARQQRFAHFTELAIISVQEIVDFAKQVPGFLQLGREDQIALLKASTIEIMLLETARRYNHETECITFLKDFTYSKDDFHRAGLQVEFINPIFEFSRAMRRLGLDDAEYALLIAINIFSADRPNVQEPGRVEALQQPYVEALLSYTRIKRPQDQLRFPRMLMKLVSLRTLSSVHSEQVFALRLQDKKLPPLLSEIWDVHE
T1 sequence (P19793 1-462 partner): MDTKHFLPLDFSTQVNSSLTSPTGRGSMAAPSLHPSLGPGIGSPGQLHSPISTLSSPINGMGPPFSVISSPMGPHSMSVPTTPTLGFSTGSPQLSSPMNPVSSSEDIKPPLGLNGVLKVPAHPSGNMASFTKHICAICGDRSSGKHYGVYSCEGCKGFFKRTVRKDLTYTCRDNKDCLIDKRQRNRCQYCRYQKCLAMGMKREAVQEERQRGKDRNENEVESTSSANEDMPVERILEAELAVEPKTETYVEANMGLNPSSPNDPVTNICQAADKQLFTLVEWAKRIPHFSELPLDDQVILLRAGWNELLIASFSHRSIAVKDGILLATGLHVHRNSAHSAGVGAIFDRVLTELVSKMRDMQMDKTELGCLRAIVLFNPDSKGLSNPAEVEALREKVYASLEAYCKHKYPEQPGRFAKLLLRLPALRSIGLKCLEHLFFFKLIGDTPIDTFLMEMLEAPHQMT
Assay: LXR/LXRE co-transfection assay (luciferase reporter) in CV-1 cells, LXRβ
Assay type: cell-based
Details: for pEC50: CV-1 cells transfected with pCMX-hLXRβ and LXREx1-Tk-Luciferase, 20 hours incubation, read-out: LXRbeta agonism EC50; for Emax: CV-1 cells, relative to maximum response of high control N-(3-((4-fluorophenyl)-(naphthalene-2-sulfonyl)amino)propyl)-2,2-dimethylpropionamide, read-out: LXRbeta % EFFICACY
Summary of the method: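 CV-1 cells transiently co-transfected with full-length human LXRβ, LXRE-Tk-luciferase reporter and β-galactosidase control, then exposed to compound (≤0.5% DMSO) for 20 h at 37 °C before luminescence read. EC50 from 10-point, half-log dose curves; efficacy relative to the sulfonamide high control, means of 2–3 experiments.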

| SMILES | pEC50 | Emax |
| --- | --- | --- |
| Cc1nc(-c2ccc3c(c2)OC(F)(F)O3)c(-c2cc(-c3cccc(S(C)(=O)=O)c3)ccc2-n2ccc(C#N)n2)o1 [Example 362, 1-(3-(4-(2,2-difluorobenzo[d][1,3]dioxol-5-yl)-2-methyloxazol-5-yl)-3′-(methylsulfonyl)-[1,1′-biphenyl]-4-yl)-1H-pyrazole-3-carbonitrile] | 7.19 | 22% |
| Cn1nc(C(F)(F)CNCCO)cc1-c1ccc(-c2cccc(S(C)(=O)=O)c2)cc1-n1nncc1-c1ccc(OC(F)(F)F)cc1 [Example 29, 2-((2,2-difluoro-2-(1-methyl-5-(3′-(methylsulfonyl)-3-(5-(4-(trifluoromethoxy)phenyl)-1H-1,2,3-triazol-1-yl)-[1,1′-biphenyl]-4-yl)-1H-pyrazol-3-yl)ethyl)amino)ethanol] | 5.91 | 80% |
| Cc1nc(-c2ccc3c(c2)OC(F)(F)O3)c(-c2cc(-c3cccc(S(C)(=O)=O)c3)ccc2-c2cc(CC(N)=O)nn2C)o1 [Example 119, 2-(5-(3-(4-(2,2-difluorobenzo[d][1,3]dioxol-5-yl)-2-methyloxazol-5-yl)-3′-(methylsulfonyl)-[1,1′-biphenyl]-4-yl)-1-methyl-1H-pyrazol-3-yl)acetamide] | 5.97 | 60% |
| Cc1nc(-c2ccc3c(c2)OC(F)(F)O3)c(-c2cc(-c3cccc(S(C)(=O)=O)c3)ccc2-c2cc(C(=O)NCC3CC3)nn2C)o1 [Example 109, N-(cyclopropylmethyl)-5-(3-(4-(2,2-difluorobenzo[d][1,3]dioxol-5-yl)-2-methyloxazol-5-yl)-3′-(methylsulfonyl)-[1,1′-biphenyl]-4-yl)-1-methyl-1H-pyrazole-3-carboxamide] | 6.45 | 52% |
| Cc1nc(-c2ccc3c(c2)OC(F)(F)O3)c(-c2cc(-c3cccc(S(C)(=O)=O)c3)ccc2-c2cc(C3(C#N)CC3)nn2C)o1 [Example 118, 1-(5-(3-(4-(2,2-difluorobenzo[d][1,3]dioxol-5-yl)-2-methyloxazol-5-yl)-3′-(methylsulfonyl)-[1,1′-biphenyl]-4-yl)-1-methyl-1H-pyrazol-3-yl) cyclopropanecarbonitrile] | 8.15 | 86% |
| Cc1nc(-c2ccc3c(c2)OC(F)(F)O3)c(-c2cc(-c3cccc(S(C)(=O)=O)c3)ccc2-c2cc(CO)nn2C)o1 [Example 98, (5-(3-(4-(2,2-difluorobenzo[d][1,3]dioxol-5-yl)-2-methyloxazol-5-yl)-3′-(methylsulfonyl)-[1,1′-biphenyl]-4-yl)-1-methyl-1H-pyrazol-3-yl)methanol] | 6.59 | 57% |
| Cc1c(C(C)(F)F)nn(C)c1-c1ccc(-c2cccc(S(C)(=O)=O)c2)cc1-n1nncc1-c1ccc(OC(F)(F)F)cc1 [Example 10, 1-(4-(3-(1,1-difluoroethyl)-1,4-dimethyl-1H-pyrazol-5-yl)-3′-(methylsulfonyl)biphenyl-3-yl)-5-(4-(trifluoromethoxy)phenyl)-1H-1,2,3-triazole] | 7.51 | 104% |
| Cc1nc(-c2ccc3c(c2)OC(F)(F)O3)c(-c2cc(-c3cc(F)c(CO)c(S(C)(=O)=O)c3)ccc2-c2cc(-c3cnco3)nn2C)o1 [Example 57, (3′-(4-(2,2-difluorobenzo[d][1,3]dioxol-5-yl)-2-methyloxazol-5-yl)-3-fluoro-4′-(1-methyl-3-(oxazol-5-yl)-1H-pyrazol-5-yl)-5-(methylsulfonyl)-[1,1′-biphenyl]-4-yl)methanol] | 6.80 | 18% |
| Cc1nc(-c2ccc(Cl)cc2)c(-c2cc(-c3cc(F)c(CO)c(S(C)(=O)=O)c3)ccc2-n2ccc(C(F)(F)F)n2)o1 [Example 336, (3′-(4-(4-chlorophenyl)-2-methyloxazol-5-yl)-3-fluoro-5-(methylsulfonyl)-4′-(3-(trifluoromethyl)-1H-pyrazol-1-yl)biphenyl-4-yl)methanol] | 7.48 | 75% |
